Counter-ions that a name gives are not always drawn.
Legend:
ISC-enriched organoids [1] = test: Primary screen, 384-well 2.5-D organoid differentiation (ENR+CD, 6 days): carbachol-induced lysozyme secretion (LYZ.S); assay type: cell-based, murine; details: primary screen; for Dose.FC.LYZ.S: FC vs plate median; for Z.LYZ.S: standard z score; for SSMD.LYZ.S: strictly standardized mean difference
Excerpt: (§1) High-throughput screening.

ISC-enriched organoids [2] = test: Primary screen, 384-well 2.5-D organoid differentiation (ENR+CD, 6 days, Target Selective Inhibitor Library, vs whole-plate median): ATP (CellTiter-Glo 3D, CTG); details: for Dose.FC.CTG: FC vs plate median; for SSMD.CTG: strictly standardized mean difference
ISC-enriched organoids [3] = test: Primary screen, 384-well 2.5-D organoid differentiation (ENR+CD, 6 days): basal lysozyme secretion (LYZ.NS); assay type: cell-based, murine; details: primary screen; for Dose.FC.LYZ.NS: FC vs plate median; for Z.LYZ.NS: standard z score; for SSMD.LYZ.NS: strictly standardized mean difference
Excerpt: as §1

[4] = 1st of the 4 dose lines of the treatment (dose not given)
[5] = 2nd of the 4 dose lines of the treatment (dose not given)
[6] = 3rd of the 4 dose lines of the treatment (dose not given)
[7] = 4th of the 4 dose lines of the treatment (dose not given)
[8] = Dose 0.08 uM, primary screen, standard z score
[9] = Dose 0.40 uM, primary screen, standard z score
[10] = Dose 2.00 uM, primary screen, standard z score
[11] = Dose 10.00 uM, primary screen, standard z score
[12] = primary screen, 1st of the 4 dose lines of the treatment (dose not given)
[13] = primary screen, 2nd of the 4 dose lines of the treatment (dose not given)
[14] = primary screen, 3rd of the 4 dose lines of the treatment (dose not given)
[15] = primary screen, 4th of the 4 dose lines of the treatment (dose not given)
[16] = Dose 10.00 uM, standard z score of FC

| Compound | Z.LYZ.S (ISC-enriched organoids [1]; [4]) | Z.LYZ.S (ISC-enriched organoids [1]; [5]) | Z.LYZ.S (ISC-enriched organoids [1]; [6]) | Z.LYZ.S (ISC-enriched organoids [1]; [7]) | SSMD.LYZ.S (ISC-enriched organoids [1]; [4]) | SSMD.LYZ.S (ISC-enriched organoids [1]; [5]) | SSMD.LYZ.S (ISC-enriched organoids [1]; [6]) | SSMD.LYZ.S (ISC-enriched organoids [1]; [7]) | Z.CTG (ISC-enriched organoids [2]; [8]) | Z.CTG (ISC-enriched organoids [2]; [9]) | Z.CTG (ISC-enriched organoids [2]; [10]) | Z.CTG (ISC-enriched organoids [2]; [11]) | SSMD.CTG (ISC-enriched organoids [2]; [12]) | SSMD.CTG (ISC-enriched organoids [2]; [13]) | SSMD.CTG (ISC-enriched organoids [2]; [14]) | SSMD.CTG (ISC-enriched organoids [2]; [15]) | SSMD.LYZ.NS (ISC-enriched organoids [3]; [4]) | SSMD.LYZ.NS (ISC-enriched organoids [3]; [5]) | SSMD.LYZ.NS (ISC-enriched organoids [3]; [6]) | SSMD.LYZ.NS (ISC-enriched organoids [3]; [7]) | further results |
| --- | --- | --- | --- | --- | --- | --- | --- | --- | --- | --- | --- | --- | --- | --- | --- | --- | --- | --- | --- | --- | --- |
| COc1cc(-n2c(=S)[nH]c3ccccc3c2=O)c(Cl)cc1Cl [Mdivi-1] | 0.511 | 0.196 | −0.310 | −2.655 | 0.520 | 0.152 | −0.196 | −2.328 | 0.019 | −0.074 | −0.267 | −1.259 | 0.026 | −0.072 | −0.356 | −1.838 | 0.715 | 0.481 | −0.093 | −1.749 | Dose.FC.LYZ.S (ISC-enriched organoids [1]; Dose 0.08 uM): 0.079 log 2 fold change; Dose.FC.LYZ.S (ISC-enriched organoids [1]; Dose 0.40 uM): 0.030 log 2 fold change; Dose.FC.LYZ.S (ISC-enriched organoids [1]; Dose 2.00 uM): −0.048 log 2 fold change; Dose.FC.LYZ.S (ISC-enriched organoids [1]; Dose 10.00 uM): −0.411 log 2 fold change; Dose.FC.CTG (ISC-enriched organoids [2]; Dose 0.08 uM, primary screen): 0.008 log 2 fold change; Dose.FC.CTG (ISC-enriched organoids [2]; Dose 0.40 uM, primary screen): −0.031 log 2 fold change; Dose.FC.CTG (ISC-enriched organoids [2]; Dose 2.00 uM, primary screen): −0.112 log 2 fold change; Dose.FC.CTG (ISC-enriched organoids [2]; Dose 10.00 uM, primary screen): −0.527 log 2 fold change; Dose.FC.LYZ.NS (ISC-enriched organoids [3]; Dose 0.08 uM): 0.177 log 2 fold change; Z.LYZ.NS (ISC-enriched organoids [3]; Dose 0.08 uM): 1.537; Dose.FC.LYZ.NS (ISC-enriched organoids [3]; Dose 0.40 uM): 0.156 log 2 fold change; Z.LYZ.NS (ISC-enriched organoids [3]; Dose 0.40 uM): 1.358; Dose.FC.LYZ.NS (ISC-enriched organoids [3]; Dose 2.00 uM): −0.022 log 2 fold change; Z.LYZ.NS (ISC-enriched organoids [3]; Dose 2.00 uM): −0.194; Dose.FC.LYZ.NS (ISC-enriched organoids [3]; Dose 10.00 uM): −0.268 log 2 fold change; Z.LYZ.NS (ISC-enriched organoids [3]; Dose 10.00 uM): −2.333 |
| CC12CC3CC(C)(C1)CC(N)(C3)C2 [Memantine HCl] | 0.586 | 0.112 | 0.328 | −0.138 | 0.420 | 0.134 | 0.292 | −0.142 | 0.199 | 0.173 | −0.018 | 0.184 | 0.214 | 0.219 | −0.016 | 0.145 | 0.489 | 0.038 | 0.745 | −0.407 |  |
| CN(Cc1cnc2nc(N)nc(N)c2n1)c1ccc(C(=O)N[C@@H](CCC(=O)O)C(=O)O)cc1 [Methotrexate] | −1.029 | −0.831 | −1.143 | −1.007 | −0.943 | −0.627 | −0.866 | −0.718 | −1.469 | −1.724 | −1.674 |  | −1.489 | −1.028 | −1.982 | −1.176 | −0.745 | −0.349 | −1.130 | −0.527 | Z.CTG (ISC-enriched organoids [2]; [16]): −1.534 |
| Nc1nc(CC(=O)Nc2ccc(CCNC[C@H](O)c3ccccc3)cc2)cs1 [Mirabegron] | 0.958 | −0.103 | −0.317 | −0.065 | 0.863 | −0.090 | −0.363 | −0.064 |  |  |  |  | 0.101 | −0.380 | 0.068 | −0.150 | 1.039 | −0.280 | −0.346 | 0.113 | Z.CTG (ISC-enriched organoids [2]; Dose 0.08 uM, standard z score of FC): 0.069; Z.CTG (ISC-enriched organoids [2]; Dose 0.40 uM, standard z score of FC): −0.801; Z.CTG (ISC-enriched organoids [2]; Dose 2.00 uM, standard z score of FC): 0.046; Z.CTG (ISC-enriched organoids [2]; [16]): −0.123 |
